Measured values taken from PubChem BioAssay (NCI).
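Grown in 96-well plates, cells were treated for 48 hours with each compound at five concentrations. Insufficient inhibition: endpoint recorded as highest concentration tested. Abbreviation: GI50, concentration required for 50% inhibition of growth. TGI marks complete inhibition of growth.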

Columns and labels:
Experiment in all cases: growth of human tumour cells (NCI), 48 h
[1] = tested on: HOP-62 NSCLC
[2] = tested on: KM12 colon
[3] = tested on: MALME-3M melanoma
[4] = tested on: MOLT-4 leukemia
[5] = tested on: OVCAR-8 ovarian
[6] = tested on: SR leukemia
[7] = tested on: TK-10 renal
[8] = tested on: UO-31 renal
[9] = tested on: A498 renal

| SMILES | TGI [1] | TGI [2] | TGI [3] | TGI [4] | TGI [5] | TGI [6] [µM] | TGI [7] | TGI [8] | TGI [9] | GI50 [9] | GI50 [1] | GI50 [2] | GI50 [3] | GI50 [4] | GI50 [5] | GI50 [7] | GI50 [8] | GI50 [6] [nM] |
| --- | --- | --- | --- | --- | --- | --- | --- | --- | --- | --- | --- | --- | --- | --- | --- | --- | --- | --- |
| CCOC(=O)C1C(=O)c2cccc(OC)c2C2COC(=O)N12 (stereo unspecified) | > 100 µM | > 100 µM | > 100 µM | > 100 µM | > 100 µM | > 100 | > 100 µM | > 100 µM | – | – | – | – | – | – | – | – | – | – |
| COc1ccc([Se]c2ccc(OC)cc2)cc1 | > 100 µM | > 100 µM | > 100 µM | > 100 µM | > 100 µM | – | > 100 µM | 9.8 µM | > 100 µM | – | – | – | – | – | – | – | – | – |
| COC(=O)C(=O)C(C(=O)C(=O)Nc1nc(=S)[nH][nH]1)c1nc2ccc([N+](=O)[O-])cc2[nH]c1=O (stereo unspecified) | > 100 µM | > 100 µM | > 100 µM | – | > 100 µM | – | > 100 µM | > 100 µM | > 100 µM | – | – | – | – | – | – | – | – | – |
| COc1ccc(CNC(=O)c2c(C)n([O-])c3cc(F)c(F)cc3[n+]2=O)cc1 | 32.7 µM | 35.5 µM | 26.8 µM | 21.2 µM | 15.9 µM | – | 27.1 µM | 26.6 µM | 29.6 µM | 16.1 µM | 18.2 µM | 15.7 µM | 11.2 µM | 4.61 µM | 3.72 µM | 14.1 µM | 12.8 µM | – |
| CC(C)CC1NC(=O)C(C(C)C)NC(=O)CC(C)COC(=O)C(CC(C)C)N(C)C(=O)C(C(C)C)NC(=O)C(C(C)C)OC1=O (stereo unspecified) | > 50 µM | > 50 µM | > 50 µM | > 50 µM | > 50 µM | > 50 | – | > 50 µM | > 50 µM | – | – | – | – | – | – | – | – | – |
| N#CC1C(=O)NC(=O)C(C#N)C1c1ccc(Cl)c(Cl)c1 (stereo unspecified) | 43.4 µM | > 100 µM | > 100 µM | 62 µM | > 100 µM | 41.6 | 98.4 µM | 33.2 µM | – | – | – | – | – | – | – | – | – | – |
| CC1SC(c2cccc(Cl)c2)N(NC(=O)C(O)c2ccccc2)C1=O (stereo unspecified) | > 100 µM | > 100 µM | > 100 µM | > 100 µM | > 100 µM | – | > 100 µM | > 100 µM | > 100 µM | > 100 µM | > 100 µM | > 100 µM | > 100 µM | > 100 µM | > 100 µM | > 100 µM | > 100 µM | – |
| N#CC(CC(=O)O)=C(c1ccccc1)c1ccccc1 | > 100 µM | > 100 µM | > 100 µM | – | > 100 µM | > 100 | > 100 µM | > 100 µM | > 100 µM | – | – | – | – | – | – | – | – | – |
| COc1ccc(-c2cc(=O)c3cccnc3[nH]2)cc1 | > 100 µM | > 100 µM | > 100 µM | > 100 µM | > 100 µM | – | > 100 µM | > 100 µM | > 100 µM | – | – | – | – | – | – | – | – | – |
| O=C1CC2OCC=C3CN4CCC56c7ccccc7N1C5C2C3CC46 (stereo unspecified) (tested in a mixture with another compound) | > 50 µg/mL | > 50 µg/mL | > 50 µg/mL | 24.9 µg/mL | > 50 µg/mL | – | > 50 µg/mL | > 50 µg/mL | > 50 µg/mL | > 50 µg/mL | > 50 µg/mL | > 50 µg/mL | > 50 µg/mL | 11.5 µg/mL | > 50 µg/mL | > 50 µg/mL | > 50 µg/mL | – |
| CCCCCCCCCCCCCCCC(N)c1ccccc1 (stereo unspecified) | 2.62 µM | 3.29 µM | 3.28 µM | 3.42 µM | 4.89 µM | 2.43 | 3.1 µM | 2.97 µM | – | – | 1.23 µM | 1.77 µM | 1.6 µM | 1.58 µM | 2.22 µM | 1.61 µM | 1.49 µM | 558 |
| O=C(Nc1ccc(N2CCNCC2)cn1)c1[nH]ncc1Nc1ncnc2sc3c(c12)CCC3 | 4.81 µM | 6.12 µM | – | 19.8 µM | 5 µM | 0.872 | 3.36 µM | 3.71 µM | 24.6 µM | 5.06 µM | 1.83 µM | 2.38 µM | – | 2.54 µM | 2.17 µM | 1.77 µM | 1.58 µM | 246 |
| COn1cc(C(=O)N=C(SC)SC)c2ccccc21 | 51.4 µM | 52.7 µM | – | 30.1 µM | 55.5 µM | – | – | > 100 µM | – | – | 17.6 µM | 20.3 µM | – | 9.42 µM | 18.5 µM | – | 40.9 µM | – |
| COC(=O)C1=C(O)C(C(=O)OC)[C@@]2(O)[C@@H](C(=O)OC)C(c3ccccc3Cl)C[C@@H]1[C@@H]2C(=O)OC (stereo partly specified) | 23.8 µM | 21.2 µM | 29.9 µM | 20.7 µM | 34 µM | – | 25.4 µM | 19.8 µM | 32.4 µM | 14.2 µM | 10.4 µM | 6.5 µM | 10.6 µM | 3.31 µM | 5.81 µM | 10.3 µM | 6.14 µM | – |
